Test results as given in patent US9084828B2, “Oligomer-protein tyrosine kinase inhibitor conjugates” (Nektar Therapeutics, priority 2009, dated 2015).

Target: ABL (Homo sapiens, UniProt P00519)
Assay: ABL tyrosine kinase inhibition, off-chip incubation mobility-shift kinase assay (Caliper LABCHIP 3000)
Conditions: for IC50: ABL, ATP at Km 14 μM, unit inferred; for ABL AVG % Activity at Specific Concentration: average of replicate wells
[1] = at 1.0E−09 (concentration unit not given)
[2] = at 1.0E−10 (concentration unit not given)
[3] = at 1.0E−11 (concentration unit not given)
[4] = at 3.0E−09 (concentration unit not given)
[5] = at 3.0E−10 (concentration unit not given)
[6] = at 3.0E−11 (concentration unit not given)

Sequence of ABL (P00519 whole entry): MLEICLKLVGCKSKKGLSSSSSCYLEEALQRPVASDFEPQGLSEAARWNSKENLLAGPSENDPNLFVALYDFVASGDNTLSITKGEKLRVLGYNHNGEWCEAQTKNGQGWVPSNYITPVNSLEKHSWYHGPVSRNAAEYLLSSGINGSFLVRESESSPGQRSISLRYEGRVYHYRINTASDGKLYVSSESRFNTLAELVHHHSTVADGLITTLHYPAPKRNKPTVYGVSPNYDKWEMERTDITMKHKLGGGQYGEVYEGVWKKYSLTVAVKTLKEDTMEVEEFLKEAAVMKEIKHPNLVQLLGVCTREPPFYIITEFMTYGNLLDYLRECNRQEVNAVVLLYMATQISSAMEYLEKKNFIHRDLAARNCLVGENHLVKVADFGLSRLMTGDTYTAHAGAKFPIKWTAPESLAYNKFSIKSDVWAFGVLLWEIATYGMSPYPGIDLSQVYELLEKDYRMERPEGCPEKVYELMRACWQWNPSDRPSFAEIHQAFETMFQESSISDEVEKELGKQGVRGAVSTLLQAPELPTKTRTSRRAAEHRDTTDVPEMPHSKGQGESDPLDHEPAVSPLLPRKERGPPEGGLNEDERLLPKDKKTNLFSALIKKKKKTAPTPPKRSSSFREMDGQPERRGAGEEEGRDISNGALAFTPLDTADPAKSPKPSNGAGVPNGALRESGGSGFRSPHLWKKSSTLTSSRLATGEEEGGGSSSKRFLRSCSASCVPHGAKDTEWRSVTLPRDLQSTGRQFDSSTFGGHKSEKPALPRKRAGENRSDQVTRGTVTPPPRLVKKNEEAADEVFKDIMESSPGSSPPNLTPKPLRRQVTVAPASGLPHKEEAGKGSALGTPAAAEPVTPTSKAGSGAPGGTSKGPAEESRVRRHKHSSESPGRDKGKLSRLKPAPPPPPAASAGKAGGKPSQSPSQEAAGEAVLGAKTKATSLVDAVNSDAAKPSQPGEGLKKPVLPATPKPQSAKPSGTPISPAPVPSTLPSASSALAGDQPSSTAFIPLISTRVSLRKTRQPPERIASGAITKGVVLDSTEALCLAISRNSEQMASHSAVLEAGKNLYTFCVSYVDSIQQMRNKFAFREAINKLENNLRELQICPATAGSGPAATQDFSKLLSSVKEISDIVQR

| IC50 [pM] | ABL AVG % Activity at Specific Concentration [1] [%] | ABL AVG % Activity at Specific Concentration [2] [%] | ABL AVG % Activity at Specific Concentration [3] [%] | ABL AVG % Activity at Specific Concentration [4] [%] | ABL AVG % Activity at Specific Concentration [5] [%] | ABL AVG % Activity at Specific Concentration [6] [%] | Compound |
| --- | --- | --- | --- | --- | --- | --- | --- |
| 310 | 4 | 80 | 97 | −1 | 47 | 92 | COCCOCCOCCOCCOCCOCCOCCOCCOCCNC(=O)OCCN1CCN(c2cc(Nc3ncc(C(=O)Nc4c(C)cccc4Cl)s3)nc(C)n2)CC1 [mPEG9-NHCOO-Dasatinib] |
| 430 | 14 | 85 | 99 | 1 | 62 | 97 | COCCOCCOCCOCC(=O)NC(CC(C)C)C(=O)OCCN1CCN(c2cc(Nc3ncc(C(=O)Nc4c(C)cccc4Cl)s3)nc(C)n2)CC1 (centres unmarked) [mPEG3-Leu-Dasatinib] |
| 300 | 4 | 80 | 97 | −1 | 45 | 94 | COCCOCCOCCOCCOCCNC(=O)OCCN1CCN(c2cc(Nc3ncc(C(=O)Nc4c(C)cccc4Cl)s3)nc(C)n2)CC1 [mPEG5-NHCOO-Dasatinib] |
| 370 | 10 | 85 | 98 | 0 | 54 | 95 | COCCOCCOCCOCC(=O)N[C@H](C(=O)OCCN1CCN(c2cc(Nc3ncc(C(=O)Nc4c(C)cccc4Cl)s3)nc(C)n2)CC1)C(C)C [mPEG3-Val-Dasatinib] |
| 290 | 2 | 80 | 98 | −1 | 44 | 92 | COCCOCCOCCOCC(=O)OCCN1CCN(c2cc(Nc3ncc(C(=O)Nc4c(C)cccc4Cl)s3)nc(C)n2)CC1 [mPEG3-COO-Dasatinib] |
